From patent US5082838A, “Sulfur-containing fused pyrimidine derivatives, their production and use” (Takeda Chemical Industries, Ltd., priority 1989, dated 1992)

How the values were obtained:
[1] = test system: Interleukin 1 Production; test: Inhibitory effects on interleukin 1 production stimulated by lipopolysaccharide in rat intraperitoneal macrophage (LAF assay); type: cell-based, Male Sprague-Dawley rats; settings: LPS 50 ug/ml; for inhibition at 10 µM: 10^-5 Molar; for inhibition at 1 µM: 10^-6 Molar
Experimental: Inhibitory Effects on Interleukin 1 Production Simulated by Lipopolysaccharide in the Rat Intraperitoneal Macrophage
Male Sprague-Dawley rats (8 weeks old, body weight: 300 g, Clea Japan) were killed by exsanguination under etherization. 20 ml of a culture solution (RPMI-1640) was intraperitoneally administered to each rat, and the abdominal part thereof was massaged, followed by abdominal section to recover the culture solution. After centrifugation of the solution, the cell pellet obtained was resuspended in 4 ml of the culture solution, superposed on 5 ml of Ficoll-Paque solution (lymphocyte separation medium, Wako Junyaku, Japan), and centrifuged at 450 g at room temperature for 15 minutes. The cells located in the boundary between the Ficoll-Paque solution and the culture solution were collected and washed 3 times with the culture solution. The resulting cells were suspended in the culture solution again, which was used as a macrophage-suspended solution (3×10^5 cells/ml).
Interleukin 1 was produced in the following manner. Macrophage (3×10^5 cells) in a 96-well microtiter plate was preincubated in a CO 2 incubator for 1 hour with each of the compounds shown in Table 5. Then, 50 ug/ml of lipopolysaccharide (Escherichia coli 0111 B4, Difco) was added thereto. After cultivation was further continued for 20 hours, the activity of interleukin 1 in the culture supernatant was measured by an LAF (lymphocyte activating factor) assay. Experiments were carried out in a triplicate manner.
The LAF assay was conducted as the following. Thymocytes (1-1.5×10^6 cells) of C3H/HeJ mice were added to phytohemagglutinin (PHA) P (diluted 1/2000; Difico) and the macrophage culture solution diluted 1/10 or 1/30, and cultivated in a CO2 incubator. After 48 hours, ^3 H-thymidine of 0.5 uCi was added thereto and cultivation was further continued for 24 hours. Then, the amount of ^3 H-thymidine entrapped in the thymocytes was measured. The radioactivity entrapped in the thymocytes was taken as the amount of interleukin-1.
We conducted this process partly modifying the method of R. C. Newton et al. [J. Leukocyte, Biology 39, 299-3111 (1986)].

[2] = test system: endothelin constriction; test: Inhibitory effects on endothelin induced contraction in porcine coronary arteries (LAD rings); type: cell-based; settings: Sus scrofa, endothelin 3×10^-9 M, read-out: Inhibition (%) of maximum contraction by endothelin; for inhibition at 10 µM: 10^-5 M; for inhibition at 1 µM: 10^-6 M
Experimental: Inhibitory Effects of the Compounds on […] Induced Contraction in Porcine Coronary Arteries
Ring preparation of porcine left arterior descending coronary arteries (LAD) were suspended in 20 ml baths containing Krebs-Henseleit solutions at 37° C. gassed with 97% O2 -3% CO2. Endothelin (3×10^-9 M) was added to the baths, and after the constriction reached the steady state, the compounds at concentrations of […] and 10^-5 M (Examples 45, 48 and 127) were added to the bath. Then, the relaxation activity was examined. The relaxation activity of the compounds was expressed as % inhibition from the maximum contraction by endothelin.

[3] = test system: Feverescence of Rat Due to Lipopolvsaccharide (LPS); test: Antipyretic activity in LPS-induced febrile rats; type: in vivo, Male JcL;SD rats; settings: p.o.
Experimental: Activity of Depressing Feverescence of Rat Due to Lipopolvsaccharide (LPS)
Male JcL;SD rats 7 weeks old (body weight: about 250 g, Clea Japan) were used. Each group had 6 rats. The rats were reared in individual cages from the day before, and then the basal body temperature was measured in the rectums using a digital thermometer (Model D221-6, Takara Kogyo) 3 times at intervals of 1 hour. After the third measurement of the body temperature, the compounds shown in Table 6 were orally administered in a volume of 1 ml per 100 g of body weight. LPS (Escherichia coli 0111 B4, Difco) was administered from their tail veins in an amount of 0.2 ml per 100 g of body weight 1 hour after the administration of the compounds.
The body temperature was measured from 3 to 5 hours after that at intervals of 1 hour. The antipyretic activity of the compounds was evaluated by the difference in body temperature between a control group and a compound-administered group. Statistical analysis was carried out by the Dunnett's test.

[4] = test system: Ischemic and Reperfused Rat Heart; test: Depressing effect against evolution of infarct size in ischemic and reperfused rat heart; type: in vivo, Male Wistar rats; settings: 100 mg/kg p.o. 2 hours before occlusion and 5 hours after reperfusion; n = 5; control 36.7 ± 1.4 (12); P < 0.01
Experimental: Depressing Effect Against Evolution of Infarct Size in Ischemic and Reperfused Rat Heart
Male Wistar rats were medianly dissected under pentobarbital anesthesia, and left anterior descending coronary artery was occluded at its origin for 1 hour, followed by resumption of Blood flowing. The chest was closed 30 to 60 minutes after the reperfusion, and the rates were kept under conscious state. After 24 hours, the rats were anesthetized again and the hearts were excised. The left ventricle of each heart was divided into six parts, and these divided parts were stained with 1% triphenyltetrazolium chloride solution at 37° C. for 15 minutes. Then, infarcted portions were weighed.
The compound obtained in Example 127 was orally administered in a dose of 100 mg/kg as a gum arabic suspension 2 hours before the occlusion and 5 hours after the reperfusion.

[5] = test system: Endothelin Induced Pressor and Depressor Responses; test: Inhibitory effects on endothelin induced pressor and depressor responses in conscious beagle dogs; type: in vivo
Description: Inhibitory Effects on Endothelin Induced Pressor and Depressor Responses in Conscious Beagle Dogs
Using 10 male beagles (12-14 kg, 8-10 months old), a polyethylene cannula (PEG-100) was inserted into each of the left femoral artery and vein of each beagle after pentobarbital anesthesia. The experiment was started from 3 to 7 days after the operation. The cannula was connected to a pressure transducer to measure the systemic blood pressure. The endothelin antagonistic activity of the compound obtained in Example 65 was examined, taking the depressor and pressor responses due to the intravenous administration of endothelin as its indication. […]

[6] = test system: NGF; test: Promoting effects on synthesis and secretion of NGF in glia cells (C6 glioma), enzyme immuno assay; type: cell-based; settings: 24 hours, read-out: Promoting Activity (%) of NGF synthesis and secretion (relative to control = 100); for activity at 30 µM: 3 × 10^-5 M; for activity at 3 µM: 3 × 10^-6 M
Experimental: Promoting Effects of the Compounds on Synthesis and Secretion of NGF in Glia Cells
A 48 well-plate was seeded with glia strains cells (C6 glioma) at a rate of 2.5×10^4 cells/well, which was cultivated in Dulbecco's modified eagle's medium (DMEM) containing 10% fetal calf serum. When the cells became confluent (2 to 3 days), each of the following compounds of the present invention was added thereto, and it was cultivated in serum free-DMEM for 24 hours. NGF secreted in the culture supernatant was assayed by enzyme immuno assay. An amount of NGF is shown in a relative value to 100, the value of control (without addition of the compound). The compounds were added in a solution of DMSO, at an amount of 1/100 (V/V) of a medium (V/V). In a control, DMSO alone was added.

[7] = 1 mg/kg, i.v., 5 min after administration, n = 4
[8] = 1 mg/kg, i.v., 1 hr after administration, n = 4
[9] = 1 mg/kg, i.v., 2 hr after administration, n = 4
[10] = 1 mg/kg, i.v., 4 hr after administration, n = 4
[11] = 1 mg/kg, i.v., 6 hr after administration, n = 4
[12] = 10 mg/kg, p.o., 1 hr after administration, n = 3
[13] = 10 mg/kg, p.o., 2 hr after administration, n = 3
[14] = 10 mg/kg, p.o., 4 hr after administration, n = 3
[15] = 10 mg/kg, p.o., 8 hr after administration, n = 3

O=c1c(-c2ccccc2)c2n(c(=O)n1-c1ccccc1)CCS2(=O)=O [Example 63]
inhibition at 10 µM [1]: 98%

O=c1c(-c2ccccc2)c2n(c(=O)n1-c1ccccc1)CCCS2(=O)=O [Example 67]
inhibition at 10 µM [1]: 98%
inhibition at 1 µM [1]: 10%

CCCCn1c(=O)c(-c2ccccc2)c2n(c1=O)CCC[S+]2[O-] (stereo not shown) [Example 45]
inhibition at 10 µM [1]: 75%
inhibition at 1 µM [1]: 30%
inhibition at 10 µM [2]: 100%
inhibition at 1 µM [2]: 6.2%

CCn1c(=O)c(-c2ccccc2)c2n(c1=O)CCCS2(=O)=O [Example 65]
inhibition at 10 µM [1]: 100%
inhibition at 1 µM [1]: 40%
Antipyretic Activity (difference in body temperature vs. control group) ([3]; 100 mg/kg): -0.95 °C

CCn1c(=O)c(-c2ccccc2)c2n(c1=O)CCC[S+]2[O-] (stereo not shown) [Example 43]
inhibition at 10 µM [1]: 52%
Antipyretic Activity (difference in body temperature vs. control group) ([3]; 100 mg/kg): -0.70 °C

CCCn1c(=O)c(-c2ccccc2)c2n(c1=O)CC=CS2 [Example 127, 9-Phenyl-7-propyl-4H,6H-pyrimido[6,1-b][1,3]thiazine6,8(7H)-dione]
ratio of the weight of the infarcted region to the weight of the left ventricles [4]: 26.8 ± 3.1%
% inhibition of Depressor Response [5, 7]: 86 ± 9%
% inhibition of Pressor Response [5, 7]: 100%
% inhibition of Depressor Response [5, 8]: 74 ± 11%
% inhibition of Pressor Response [5, 8]: 55 ± 7%
% inhibition of Depressor Response [5, 9]: 57 ± 10%
% inhibition of Pressor Response [5, 9]: 55 ± 7%
% inhibition of Depressor Response [5, 10]: 31 ± 13%
% inhibition of Pressor Response [5, 10]: 38 ± 15%
% inhibition of Depressor Response [5, 11]: 30 ± 8%
% inhibition of Pressor Response [5, 11]: 32 ± 10%
% inhibition of Depressor Response [5, 12]: 34 ± 9%
% inhibition of Pressor Response [5, 12]: 37 ± 10%
% inhibition of Depressor Response [5, 13]: 81 ± 10%
% inhibition of Pressor Response [5, 13]: 85 ± 10%
% inhibition of Depressor Response [5, 14]: 67 ± 12%
% inhibition of Pressor Response [5, 14]: 76 ± 12%
% inhibition of Depressor Response [5, 15]: 50 ± 0%
% inhibition of Pressor Response [5, 15]: 43 ± 4%
inhibition at 10 µM [2]: 90%
inhibition at 1 µM [2]: 82.3%

9-Formyl-7-propyl-3,4-dihydro-2H,6H-pyrimido[6,1-b][1,3]thiazine-6,8(7H)-dione [Example 101]
Antipyretic Activity (difference in body temperature vs. control group) ([3]; 100 mg/kg): -0.87 °C

CCCn1c(=O)c(-c2ccccc2)c2n(c1=O)CC[S+]2[O-] (stereo not shown) [Example 48]
inhibition at 10 µM [2]: 86.6%
inhibition at 1 µM [2]: 24.6%

CCCC/C=C/c1c2n(c(=O)n(CCC)c1=O)CCS2 [Example 106]
Antipyretic Activity (difference in body temperature vs. control group) ([3]; 100 mg/kg): -0.53 °C

CCCCCn1c(=O)c(-c2ccccc2)c2n(c1=O)CCC[S+]2[O-] (stereo not shown) [Example 50]
inhibition at 10 µM [1]: 98%
inhibition at 1 µM [1]: 58%

Cn1c(=O)c(-c2ccccc2)c2n(c1=O)CCS2(=O)=O [Example 59]
inhibition at 10 µM [1]: 89%

CCCCn1c(=O)c(-c2ccccc2)c2n(c1=O)CCCS2 [Example 23]
Antipyretic Activity (difference in body temperature vs. control group) ([3]; 100 mg/kg): -0.72 °C

CCCn1c(=O)c(-c2ccccc2)c2n(c1=O)CCS2(=O)=O [Example 61]
activity at 30 µM [6]: 109 ± 12%
activity at 3 µM [6]: 177 ± 8%

CCCn1c(=O)c(-c2ccccc2)c2n(c1=O)CCCS2(=O)=O [Example 58, 1,1-Dioxo-9-phenyl-7-propyl-3,4-dihydro-2H,6H-pyrimido [6,1-b][1,3]thiazine-6,8(7H)-dione]
activity at 30 µM [6]: 140 ± 2%
activity at 3 µM [6]: 164 ± 25%

O=c1c(-c2ccccc2)c2n(c(=O)n1Cc1ccccc1)CC=CS2 [Example 129, 7-Benzyl-9-phenyl-4H,6H-pyrimido[6,1-b][1,3]thiazine-6,8(7H)-dione]
activity at 30 µM [6]: 117 ± 6%
activity at 3 µM [6]: 197 ± 9%

CCCCn1c(=O)c(-c2ccccc2)c2n(c1=O)CCS2(=O)=O [Example 62]
inhibition at 10 µM [1]: 96%

O=c1c(-c2ccccc2)c2n(c(=O)n1Cc1ccccc1)CCCS2 [Example 36, 7-benzyl-9-phenyl-3,4-dihydro-2H,6H-pyrimido[6,1-b][1,3]thiazine-6,8(7H)-dione]
activity at 30 µM [6]: 102 ± 2%
activity at 3 µM [6]: 240 ± 16%

CCCn1c(=O)c(-c2ccccc2)c2n(c1=O)CCCS2 [Example 1, 9-Phenyl-7-propyl-3,4-dihydro-2H,6H-pyrimido[6,1-b][1,3] thiazine-6,8(7H)-dione]
activity at 30 µM [6]: 117 ± 34%
activity at 3 µM [6]: 168 ± 6%

CCn1c(=O)c(-c2ccccc2)c2n(c1=O)CCCS2 [Example 17]
inhibition at 10 µM [1]: 93%

Cn1c(=O)c(-c2ccccc2)c2n(c1=O)CCCS2(=O)=O [Example 64]
inhibition at 10 µM [1]: 100%
inhibition at 1 µM [1]: 60%
Antipyretic Activity (difference in body temperature vs. control group) ([3]; 25 mg/kg): -0.68 °C
Antipyretic Activity (difference in body temperature vs. control group) ([3]; 50 mg/kg): -0.82 °C
Antipyretic Activity (difference in body temperature vs. control group) ([3]; 100 mg/kg): -1.13 °C
